Data reported in US11987571B1, “Ethyl 2-[9-(6-chloro-2-hydroxyquinolin-3-yl)-3,6-diphenyl-1,8-dioxo-3,4,9,10-tetrahydroacridine-10-yl]-acetate as an antimicrobial compound” (KING FAISAL UNIVERSITY, priority 2023, dated 2024).

Legend:
Staphylococcus aureus = assay: Antimicrobial activity by agar dilution, St. Aereus; assay type: cell-based; settings: after 10, 20, 40 and 60 minutes at all dilutions 1:100, 1:200, 1:400, and 1:800
Description: (§1) The antibacterial properties of the synthesized compound (ethyl 2-[9-(6-chloro-2-hydroxyquinolin-3-yl)-3,6-diphenyl-1,8-dioxo-3,4,9,10-tetrahydroacridine-10-yl]-acetate) were studied by the method of agar dilution. Test solutions of each compound was prepared in concentration of 1% using dimethylformamide as a solvent. Then they were diluted in physiological solution to obtain the final experimental dilutions of 1:100, 1:200, 1:400, and 1:800. The effect of these substances were compared with furacillin in a controllable study. The testing microbes used were gram positive bacteria Staphylococcus aureus, gram negative bacteria Pseudomonas aeruginosa, Escherichia coli, and Candida albicans fungus. The experiments used for this survey were meat-pentonlu agar (EPA) for cultivation of bacteria and Saburo environment for fungi. Each experiment used 1 mL of test solution on each plate for […]. Two drops of emulsified with microbes feel were added. All experimental samples were taken from the agar after 10, 20, 40, 60 minutes in the environment on the basis of Patrk planted. Bacteria were cultivated at a temperature of 37° C. for 1 day and the mushroom was kept in a thermostat for […] at a temperature of 28° C. Then results were checked. Those of control and the antimicrobial activity for the synthesized compounds are listed in Table 1 below, with furacillin serving as a reference.

Pseudomonas aeruginosa = assay: Antimicrobial activity by agar dilution, Ps. aeruginosa; assay type: cell-based; settings: after 10, 20, 40 and 60 minutes at all dilutions 1:100, 1:200, 1:400, and 1:800
Description: as §1

Escherichia coli = assay: Antimicrobial activity by agar dilution, E. Coli; assay type: cell-based; settings: after 10, 20, 40 and 60 minutes at all dilutions 1:100, 1:200, 1:400, and 1:800
Description: as §1

Candida albicans = assay: Antimicrobial activity by agar dilution, Candida albicans; assay type: cell-based; settings: after 10, 20, 40 and 60 minutes at all dilutions 1:100, 1:200, 1:400, and 1:800
Description: as §1

CCOC(=O)CN1C2=C(C(=O)CC(c3ccccc3)C2)C(c2cc3cc(Cl)ccc3nc2O)C2=C1CC(c1ccccc1)CC2=O (centres unmarked) [ethyl 2-[9-(6-chloro-2-hydroxyquinolin-3-yl)-3,6-diphenyl-1,8-dioxo-3,4,9,10-tetrahydroacridine-10-yl]-acetate]
inhibition activity compared with Furacilin (Staphylococcus aureus): higher inhibition activity
inhibition activity compared with Furacilin (Pseudomonas aeruginosa): higher inhibition activity
inhibition activity compared with Furacilin (Escherichia coli): higher inhibition activity
melting point: 222 °C
inhibition activity compared with Furacilin (Candida albicans): higher inhibition activity
